Measurements: US8901118B2, “Compounds and methods for kinase modulation, and indications therefor” (Plexxikon Inc., priority 2010, dated 2014)

Legend:
[1] = biological target: T1, BCR-NTRK2 BaF3 cells (Homo sapiens, UniProt Q16620); assay: BaF3 BCR-NTRK2 cell proliferation assay (ATPlite); assay type: cell-based; conditions: read-out: Inhibition of Cell Proliferation IC50, BCR/BaF3 TrkB
T1 construct: fused on or other part: P11274 (Breakpoint cluster region protein)
Summary of the method: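 IL-3-free growth, 3-day compound exposure (8-point 1:3 titration, top 10 μM, DMSO control), 37 °C 5% CO2. BaF3 10,000 or MV-4-11 25,000 cells/well, plated overnight beforehand. Read-out ATPlite luminescence vs concentration → IC50.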

[2] = test system: SKNSH cells; assay: SKNSH (human neuroblastoma) cell proliferation assay (ATPlite); assay type: cell-based; conditions: SK-N-SH, read-out: Inhibition of Cell Proliferation IC50, SKNSH
Summary of the method: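 Fms/Trk inhibitor efficacy was tested by proliferation of SKNSH neuroblastoma cells. After 3 days of compound exposure at 37° C. in 5% CO2, 20 μL per well of ATPlite 1 step reagent was added, plates sat 10 minutes at room temperature, and luminescence, proportional to cell number, was read on a Safire reader to derive IC50.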

[3] = biological target: T2, CYP1A2 (Homo sapiens, UniProt P05177); assay: CYP1A2 inhibition (fluorescent substrate CEC); assay type: in vitro ADME; conditions: read-out: Cyp IC50 1A2
T2 sequence (P05177 1-516): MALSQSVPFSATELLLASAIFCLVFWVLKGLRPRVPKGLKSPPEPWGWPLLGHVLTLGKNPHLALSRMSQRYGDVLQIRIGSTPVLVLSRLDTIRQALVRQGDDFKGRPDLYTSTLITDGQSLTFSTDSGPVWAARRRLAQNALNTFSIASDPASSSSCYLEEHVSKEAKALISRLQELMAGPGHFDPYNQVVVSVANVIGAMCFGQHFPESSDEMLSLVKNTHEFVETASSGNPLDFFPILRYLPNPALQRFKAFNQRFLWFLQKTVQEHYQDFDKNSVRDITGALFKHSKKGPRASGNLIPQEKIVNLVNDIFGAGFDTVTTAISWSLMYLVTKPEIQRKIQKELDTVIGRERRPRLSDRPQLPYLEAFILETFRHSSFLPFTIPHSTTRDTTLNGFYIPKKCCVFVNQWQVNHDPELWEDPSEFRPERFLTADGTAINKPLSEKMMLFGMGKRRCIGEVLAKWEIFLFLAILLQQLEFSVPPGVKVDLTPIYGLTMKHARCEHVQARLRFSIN
Summary of the method: (§1)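 10-pt 1:1 dilution series (from 100 mM DMSO stock) in NADPH regen cofactor mix, 5% MeCN; 10 min preincubation at 37 °C. Enzyme reaction 37 °C: 1A2 15 min, 2C9 45 min, 2C19/2D6 30 min. Fluorescence readout; IC50 fit.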

[4] = biological target: CYP2C9 (Homo sapiens, UniProt P11712); assay: CYP2C9 inhibition (fluorescent substrate MFC); assay type: in vitro ADME; conditions: read-out: Cyp IC50 2C9
Summary of the method: as §1

T1 sequence (Q16620 538-807): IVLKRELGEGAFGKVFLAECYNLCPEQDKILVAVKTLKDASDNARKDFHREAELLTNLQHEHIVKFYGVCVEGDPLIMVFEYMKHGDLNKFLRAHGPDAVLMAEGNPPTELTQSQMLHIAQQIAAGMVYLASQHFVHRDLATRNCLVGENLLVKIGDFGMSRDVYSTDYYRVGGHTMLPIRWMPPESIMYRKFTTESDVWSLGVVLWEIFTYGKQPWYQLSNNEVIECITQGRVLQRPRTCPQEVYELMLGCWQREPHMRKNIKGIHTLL
Chain of CYP2C9 (P11712 whole entry): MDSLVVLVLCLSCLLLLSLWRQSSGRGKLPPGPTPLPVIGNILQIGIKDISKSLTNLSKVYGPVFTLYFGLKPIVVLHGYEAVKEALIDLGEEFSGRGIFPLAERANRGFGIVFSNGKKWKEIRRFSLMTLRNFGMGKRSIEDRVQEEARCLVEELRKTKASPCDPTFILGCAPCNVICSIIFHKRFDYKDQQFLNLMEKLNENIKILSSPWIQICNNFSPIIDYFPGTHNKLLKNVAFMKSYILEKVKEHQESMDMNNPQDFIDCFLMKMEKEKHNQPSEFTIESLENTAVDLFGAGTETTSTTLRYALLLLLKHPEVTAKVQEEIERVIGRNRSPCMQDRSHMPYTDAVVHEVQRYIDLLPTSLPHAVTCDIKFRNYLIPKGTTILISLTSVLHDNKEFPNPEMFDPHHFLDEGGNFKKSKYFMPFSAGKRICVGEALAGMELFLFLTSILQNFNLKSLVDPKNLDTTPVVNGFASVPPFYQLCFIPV

Cc1cnc2[nH]cc(C(=O)c3ccc(Nc4ccc(C)nc4)nc3F)c2c1 [Compound P-3043, [2-Fluoro-6-(6-methyl-pyridin-3-ylamino)-pyridin-3-yl]-(5-methyl-1H-pyrrolo[2,3-b]pyridin-3-yl)-methanone]
IC50 [1]: < 0.1 µM | IC50 [2]: < 1 µM | IC50 [3]: > 10 µM | IC50 [4]: > 10 µM

Cc1ccc(Nc2ccc(C(=O)c3c[nH]c4ncc(Cl)cc34)c(F)n2)cn1 [Compound P-3044, (5-Chloro-1H-pyrrolo[2,3-b]pyridin-3-yl)-[2-fluoro-6-(6-methyl-pyridin-3-ylamino)-pyridin-3-yl]-methanone]
IC50 [1]: < 0.1 µM | IC50 [2]: > 1 µM | IC50 [3]: > 10 µM | IC50 [4]: > 10 µM

COc1ccc(Nc2ccc(Cc3c[nH]c4ncnc(OC)c34)c(F)n2)cn1 [Compound P-4001, [6-Fluoro-5-(4-methoxy-7H-pyrrolo[2,3-d]pyrimidin-5-ylmethyl)-pyridin-2-yl]-(6-methoxy-pyridin-3-yl)-amine]
IC50 [1]: < 0.1 µM | IC50 [2]: < 1 µM | IC50 [3]: > 10 µM | IC50 [4]: > 10 µM

COc1ccc(Nc2ccc(Cc3c[nH]c4ncnc(C)c34)c(F)n2)cn1 [Compound P-4002, [6-Fluoro-5-(4-methyl-7H-pyrrolo[2,3-d]pyrimidin-5-ylmethyl)-pyridin-2-yl]-(6-methoxy-pyridin-3-yl)-amine]
IC50 [1]: < 1 µM | IC50 [2]: < 0.1 µM | IC50 [3]: > 10 µM | IC50 [4]: > 10 µM

COc1ncnc2[nH]cc(Cc3ccc(Nc4ccc(Cl)nc4)nc3F)c12 [Compound P-4003, (6-Chloro-pyridin-3-yl)-[6-fluoro-5-(4-methoxy-7H-pyrrolo[2,3-d]pyrimidin-5-ylmethyl)-pyridin-2-yl]-amine]
IC50 [1]: < 1 µM | IC50 [2]: > 1 µM | IC50 [3]: > 10 µM | IC50 [4]: > 10 µM

COc1ncnc2[nH]cc(Cc3ccc(Nc4ccc(C5CC5)nc4)nc3F)c12 [Compound P-4004, (6-Cyclopropyl-pyridin-3-yl)-[6-fluoro-5-(4-methoxy-7H-pyrrolo[2,3-d]pyrimidin-5-ylmethyl)-pyridin-2-yl]-amine]
IC50 [1]: < 0.01 µM | IC50 [2]: < 1 µM | IC50 [3]: > 10 µM | IC50 [4]: > 10 µM

CCOc1ccc(Nc2ccc(Cc3c[nH]c4ncnc(OC)c34)c(F)n2)cn1 [Compound P-4005, (6-Ethoxy-pyridin-3-yl)-[6-fluoro-5-(4-methoxy-7H-pyrrolo[2,3-d]pyrimidin-5-ylmethyl)-pyridin-2-yl]-amine]
IC50 [1]: < 0.01 µM | IC50 [2]: < 1 µM | IC50 [3]: > 10 µM | IC50 [4]: > 10 µM

CCOc1ccc(Nc2ccc(Cc3c[nH]c4ncnc(C)c34)c(F)n2)cn1 [Compound P-4006, (6-Ethoxy-pyridin-3-yl)-[6-fluoro-5-(4-methyl-7H-pyrrolo[2,3-d]pyrimidin-5-ylmethyl)-pyridin-2-yl]-amine]
IC50 [1]: < 0.01 µM | IC50 [2]: < 0.1 µM | IC50 [3]: > 10 µM | IC50 [4]: > 10 µM

CCc1ccc(Nc2ccc(Cc3c[nH]c4ncnc(OC)c34)c(F)n2)cn1 [Compound P-4007, (6-Ethyl-pyridin-3-yl)-[6-fluoro-5-(4-methoxy-7H-pyrrolo[2,3-d]pyrimidin-5-ylmethyl)-pyridin-2-yl]-amine]
IC50 [1]: < 0.1 µM | IC50 [2]: < 1 µM | IC50 [3]: > 10 µM | IC50 [4]: > 10 µM

CCOc1ccc(Nc2ccc(Cc3c[nH]c4ncnc(OCCOC)c34)c(F)n2)cn1 [Compound P-4008, (6-Ethoxy-pyridin-3-yl)-{6-fluoro-5-[4-(2-methoxy-ethoxy)-7H-pyrrolo[2,3-d]pyrimidin-5-ylmethyl]-pyridin-2-yl}-amine]
IC50 [1]: < 0.1 µM | IC50 [2]: > 1 µM | IC50 [3]: > 10 µM | IC50 [4]: > 10 µM

CCc1ccc(Nc2ccc(Cc3c[nH]c4ncnc(C)c34)c(F)n2)cn1 [Compound P-4009, (6-Ethyl-pyridin-3-yl)-[6-fluoro-5-(4-methyl-7H-pyrrolo[2,3-d]pyrimidin-5-ylmethyl)-pyridin-2-yl]-amine]
IC50 [1]: < 0.01 µM | IC50 [2]: < 0.1 µM | IC50 [3]: > 10 µM | IC50 [4]: > 10 µM

COc1ncnc2[nH]cc(Cc3ccc(Nc4ccc(C)nc4)nc3F)c12 [Compound P-4010, [6-Fluoro-5-(4-methoxy-7H-pyrrolo[2,3-d]pyrimidin-5-ylmethyl)-pyridin-2-yl]-(6-methyl-pyridin-3-yl)-amine]
IC50 [1]: < 0.1 µM | IC50 [2]: < 1 µM | IC50 [3]: > 10 µM | IC50 [4]: > 10 µM

CCn1cc(Nc2ccc(Cc3c[nH]c4ncnc(OC)c34)c(F)n2)cn1 [Compound P-4011, (1-Ethyl-1H-pyrazol-4-yl)-[6-fluoro-5-(4-methoxy-7H-pyrrolo[2,3-d]pyrimidin-5-ylmethyl)-pyridin-2-yl]-amine]
IC50 [1]: < 1 µM | IC50 [2]: > 1 µM | IC50 [3]: > 10 µM | IC50 [4]: 5 to 10 µM

CCOc1ncnc2[nH]cc(Cc3ccc(Nc4cnn(CC)c4)nc3F)c12 [Compound P-4012, [5-(4-Ethoxy-7H-pyrrolo[2,3-d]pyrimidin-5-ylmethyl)-6-fluoro-pyridin-2-yl]-(1-ethyl-1H-pyrazol-4-yl)-amine]
IC50 [1]: < 0.1 µM | IC50 [2]: > 1 µM | IC50 [3]: > 10 µM | IC50 [4]: > 10 µM

CCn1cc(Nc2ccc(Cc3c[nH]c4ncnc(C)c34)c(F)n2)cn1 [Compound P-4013, (1-Ethyl-1H-pyrazol-4-yl)-[6-fluoro-5-(4-methyl-7H-pyrrolo[2,3-d]pyrimidin-5-ylmethyl)-pyridin-2-yl]-amine]
IC50 [1]: < 1 µM | IC50 [2]: > 1 µM | IC50 [3]: > 10 µM | IC50 [4]: < 5 µM

CCn1cc(Nc2ccc(Cc3c[nH]c4ncnc(OCCOC)c34)c(F)n2)cn1 [Compound P-4014, (1-Ethyl-1H-pyrazol-4-yl)-{6-fluoro-5-[4-(2-methoxy-ethoxy)-7H-pyrrolo[2,3-d]pyrimidin-5-ylmethyl]-pyridin-2-yl}-amine]
IC50 [1]: < 1 µM | IC50 [2]: > 10 µM | IC50 [3]: > 10 µM | IC50 [4]: 5 to 10 µM

COCCOc1ncnc2[nH]cc(Cc3ccc(Nc4ccc(C)nc4)nc3F)c12 [Compound P-4015, {6-Fluoro-5-[4-(2-methoxy-ethoxy)-7H-pyrrolo[2,3-d]pyrimidin-5-ylmethyl]-pyridin-2-yl}-(6-methyl-pyridin-3-yl)-amine]
IC50 [1]: < 1 µM | IC50 [2]: > 1 µM | IC50 [3]: > 10 µM | IC50 [4]: > 10 µM

CCc1ccc(Nc2ccc(Cc3c[nH]c4ncnc(OCCOC)c34)c(F)n2)cn1 [Compound P-4016, (6-Ethyl-pyridin-3-yl)-{6-fluoro-5-[4-(2-methoxy-ethoxy)-7H-pyrrolo[2,3-d]pyrimidin-5-ylmethyl]-pyridin-2-yl}-amine]
IC50 [1]: < 0.01 µM | IC50 [2]: > 1 µM | IC50 [3]: > 10 µM | IC50 [4]: > 10 µM

CCOc1ncnc2[nH]cc(Cc3ccc(Nc4ccc(C)nc4)nc3F)c12 [Compound P-4017, [5-(4-Ethoxy-7H-pyrrolo[2,3-d]pyrimidin-5-ylmethyl)-6-fluoro-pyridin-2-yl]-(6-methyl-pyridin-3-yl)-amine]
IC50 [1]: < 1 µM | IC50 [2]: < 1 µM | IC50 [3]: > 10 µM | IC50 [4]: > 10 µM

CCOc1ncnc2[nH]cc(Cc3ccc(Nc4ccc(OC)nc4)nc3F)c12 [Compound P-4018, [5-(4-Ethoxy-7H-pyrrolo[2,3-d]pyrimidin-5-ylmethyl)-6-fluoro-pyridin-2-yl]-(6-methoxy-pyridin-3-yl)-amine]
IC50 [1]: < 0.1 µM | IC50 [2]: < 1 µM | IC50 [3]: > 10 µM | IC50 [4]: > 10 µM
